The values below come from patent publication US9597407B2, “Targeted antimicrobial moieties” (C3 Jian, Inc., priority 2009, dated 2017).

One assay deals with bacteria. The assay is described as follows: Binding of targeting peptides to microorganisms (Table 3). The conditions noted are these: microorganism bound by the targeting peptide; binding in aqueous buffers chosen by peptide solubility, preferably 1x PBS.
A further assay deals with microorganisms. The experiment in a line: Morphology, biofilm and growth disruption by peptides (Table 5). The format is cell-based. Also noted: key: A: Peptide aggregates; B: Less hyphal formation; Clumps; Diffuse clumps and small polyps; F: Diffuse growth; H: Thin; I: Growth inhibition; Microcolony formation; Rippled; Small polyps; Thick; W: Halo formation on top, microlonies on bottom. An excerpt: In certain embodiments peptides that induce alterations in phenotype or other biological activities can also be used as antimicrobial effector moieties.

Entries after “also recorded” stand apart in the source; their conditions may differ.

Turning to “PF-156 (LITAEQPATAPIAGK; Peptide with targeting and/or antimicrobial activity)”, the “Target(s)” value in the assay with bacteria was “S. epidermidis; also recorded: C. jeikeium”. Also, the “Organism, effect” value with microorganisms (MRSA) was “MRSA (H)”.

Turning to “PF-164 (EEVSRALAGIGLGLGCRIG; Peptide with targeting and/or antimicrobial activity)”, in the assay on bacteria, the “Target(s)” value is reported as “S. epidermidis; also recorded: M. luteus; also recorded: E. coli; also recorded: C. jeikeium”. The “Organism, effect” value in the assay with microorganisms (C. jeikeium) is listed as “C. jeikeium (R)”.

For the substance “PF-171 (TQVTLCRTW; Peptide with targeting and/or antimicrobial activity)”, the “Target(s)” value in the assay on bacteria is given as “S. epidermidis; also recorded: E. coli; also recorded: P. aeruginosa; also recorded: S. pneumoniae”. Further, the “Organism, effect” value with microorganisms (B. subtilis) is on record as “B. subtilis (D)”; with microorganisms (C. jejuni), “C. jejuni (R)”; in the assay with microorganisms (M. luteus), “M. luteus (R)”; in the assay on microorganisms (MRSA), “MRSA (M)”; in the assay with microorganisms (S. epidermidis), “S. epidermidis (R)”; in the assay on microorganisms (S. pneumoniae) it was “S. pneumoniae (D)”.

With “PF-173 (AGRTAIVQGGG; Peptide with targeting and/or antimicrobial activity)”, in the assay with bacteria, the “Target(s)” value is “S. epidermidis; also recorded: M. luteus; also recorded: P. mirabilis; also recorded: E. coli; also recorded: P. aeruginosa; also recorded: C. albicans; also recorded: C. jeikeium; also recorded: C. jejuni”. Also, the “Organism, effect” value with microorganisms (C. jeikeium) is given as “C. jeikeium (D)”; in the assay with microorganisms (S. epidermidis) it was “S. epidermidis (A)”.

Take “PF-175 (RRRPAGQRPEKASQAMIAA; Peptide with targeting and/or antimicrobial activity)”: the “Target(s)” value with bacteria is recorded as “S. epidermidis; also recorded: E. faecalis”. The “Organism, effect” value is “B. subtilis (D)” in the assay with microorganisms (B. subtilis); “C. albicans (B)” in the assay with microorganisms (C. albicans); “C. jejuni (M)” in the assay on microorganisms (C. jejuni); “M. luteus (S)” in the assay with microorganisms (M. luteus); “S. pneumoniae (A)” in the assay with microorganisms (S. pneumoniae).

With “PF-176 (RLTSNQFLTRITPFVFAQH; Peptide with targeting and/or antimicrobial activity)”, the “Target(s)” value in the assay on bacteria was “S. epidermidis and M. luteus and P. mirabilis and E. coli and C. albicans and MRSA and E. faecalis and C. jeikeium”. The figures for the “Organism, effect” value in the assay with microorganisms (C. jeikeium), in the assay on microorganisms (M. luteus) and with microorganisms (S. epidermidis) were “C. jeikeium (D)”, “M. luteus (C)” and “S. epidermidis (C)”, respectively.

With “PF-180 (SGLGDLGFSSEAK; Peptide with targeting and/or antimicrobial activity)”, the “Target(s)” value in the assay on bacteria was “S. epidermidis and M. luteus and P. aeruginosa and C. albicans and MRSA and E. faecalis and C. jejuni and M. smegmatis”. Besides, the “Organism, effect” value with microorganisms (S. epidermidis) is recorded as “S. epidermidis (C)”.

Turning to “PF-186 (DADKNLSLERDRFAWRVAAP; Peptide with targeting and/or antimicrobial activity)”, the “Target(s)” value in the assay with bacteria was “S. epidermidis and M. luteus and E. coli and P. aeruginosa and MRSA and C. jeikeium”. In addition, the “Organism, effect” value was “C. jeikeium (A)” in the assay on microorganisms (C. jeikeium) and “S. epidermidis (C)” in the assay on microorganisms (S. epidermidis).

Consider “PF-188 (ARTFAGRLGTRYFGGLMRSTKA; Peptide with targeting and/or antimicrobial activity)”, for which the “Target(s)” value with bacteria was “S. epidermidis and M. luteus and E. coli and C. albicans and MRSA and E. faecalis”. In addition, the “Organism, effect” value with microorganisms (C. jeikeium) was “C. jeikeium (H)”.

For “PF-191 (QFCNFAWLFLASNNAQVSALA; Peptide with targeting and/or antimicrobial activity)”, the “Target(s)” value in the assay on bacteria was “E. coli; also recorded: P. aeruginosa; also recorded: C. jejuni”. The “Organism, effect” value in the assay on microorganisms (C. jeikeium) is on record as “C. jeikeium (R)”; in the assay with microorganisms (MRSA), “MRSA (H)”; in the assay with microorganisms (S. epidermidis) it was “S. epidermidis (A)”.

For “PF-192 (VEEDEAPPPHY; Peptide with targeting and/or antimicrobial activity)”, in the assay on bacteria, the “Target(s)” value is recorded as “S. epidermidis; also recorded: M. luteus; also recorded: P. aeruginosa; also recorded: C. albicans; also recorded: E. faecalis; also recorded: C. jeikeium”. In addition, in the assay on microorganisms (S. epidermidis), the “Organism, effect” value is “S. epidermidis (D)”.

Regarding “PF-204 (ALQKQDMNLPSVKNQLVFLKSTG; Peptide with targeting and/or antimicrobial activity)”, the “Target(s)” value with bacteria was “S. epidermidis; also recorded: P. mirabilis; also recorded: E. coli; also recorded: P. aeruginosa; also recorded: C. albicans; also recorded: C. jejuni”. Besides, the “Organism, effect” value is on record as “C. jeikeium (D)” with microorganisms (C. jeikeium), “M. luteus (C)” in the assay with microorganisms (M. luteus), “P. aeruginosa (H)” in the assay with microorganisms (P. aeruginosa) and “S. epidermidis (C)” in the assay with microorganisms (S. epidermidis).

With “PF-208 (DAYHCHLVRSPDAHDLSMRIGFV; Peptide with targeting and/or antimicrobial activity)”, the “Target(s)” value in the assay on bacteria was “S. epidermidis and C. albicans and MRSA and S. pneumoniae and E. faecalis and C. jeikeium and C. jejuni”. Also, the “Organism, effect” value is on record as “C. jeikeium (A)” in the assay with microorganisms (C. jeikeium) and “S. epidermidis (D)” in the assay with microorganisms (S. epidermidis).

As for “PF-212 (NDSKASN; Peptide with targeting and/or antimicrobial activity)”, in the assay with bacteria, the “Target(s)” value was “M. luteus; also recorded: P. aeruginosa”. Moreover, the “Organism, effect” value with microorganisms (M. luteus) is reported as “M. luteus (M)”.

On to “PF-215 (ELKITNYNVNTVLYRYYKWGNDLCE; Peptide with targeting and/or antimicrobial activity)”, for which the “Target(s)” value with bacteria is “S. epidermidis; also recorded: M. luteus; also recorded: P. aeruginosa; also recorded: A. baumannii”. Also, the “Organism, effect” value in the assay on microorganisms (M. luteus) is “M. luteus (T)”.

For the substance “PF-224 (DYFYITLSQKNTF; Peptide with targeting and/or antimicrobial activity)”, the “Target(s)” value in the assay on bacteria is “S. epidermidis; also recorded: P. aeruginosa; also recorded: A. baumannii”. Besides, the “Organism, effect” value in the assay on microorganisms (M. luteus) is on record as “M. luteus (T)”.

As to “PF-233 (DANAMARTTIAIVYILALIALTISYSL; Peptide with targeting and/or antimicrobial activity)”, the “Target(s)” value with bacteria is given as “S. epidermidis; also recorded: M. luteus; also recorded: P. aeruginosa; also recorded: A. baumannii”. For the same substance, the “Organism, effect” value in the assay with microorganisms (S. epidermidis) is “S. epidermidis (C)”.

For “PF-234 (RTPYILRS; Peptide with targeting and/or antimicrobial activity)”, the “Target(s)” value with bacteria is “S. epidermidis; also recorded: M. luteus”. Also, in the assay with microorganisms (M. luteus), the “Organism, effect” value is “M. luteus (T)”.

Consider “PF-235 (GIPFSKPHKRQVNYMKSDVLAYIEQNKMAHTA; Peptide with targeting and/or antimicrobial activity)”, for which the “Target(s)” value in the assay on bacteria is “S. epidermidis; also recorded: M. luteus”. Also, in the assay on microorganisms (M. luteus), the “Organism, effect” value is “M. luteus (T)”.

For “PF-249 (INSRYKISF; Peptide with targeting and/or antimicrobial activity)”, the “Target(s)” value with bacteria was “S. epidermidis; also recorded: M. luteus”. The “Organism, effect” value in the assay with microorganisms (M. luteus) is “M. luteus (R)”.

As for “PF-255 (DHKINESQHNPFRSDSNKQNVDFF; Peptide with targeting and/or antimicrobial activity)”, in the assay on bacteria, the “Target(s)” value is listed as “P. aeruginosa”. In the assay on microorganisms (M. luteus), the “Organism, effect” value was “M. luteus (M)”.

As to “PF-270 (MYLTPYAWIAVGSIFAFSVTTIKIGDQNDEKQKSHKNDVHKR; Peptide with targeting and/or antimicrobial activity)”, in the assay with bacteria, the “Target(s)” value was “S. epidermidis; also recorded: M. luteus; also recorded: P. aeruginosa”. In the assay on microorganisms (M. luteus), the “Organism, effect” value was “M. luteus (H)”.

For the substance “PF-271 (AAQPQTTSP; Peptide with targeting and/or antimicrobial activity)”, the “Target(s)” value in the assay on bacteria is on record as “S. epidermidis; also recorded: M. luteus; also recorded: P. aeruginosa; also recorded: A. baumannii”. The “Organism, effect” value in the assay on microorganisms (M. luteus) is listed as “M. luteus (T)”.

Turning to “PF-273 (LVGALLIFVALIYMVLKGNADKN; Peptide with targeting and/or antimicrobial activity)”, the “Target(s)” value in the assay on bacteria was “S. epidermidis; also recorded: M. luteus; also recorded: P. aeruginosa; also recorded: A. baumannii”. The “Organism, effect” value in the assay on microorganisms (S. epidermidis) is “S. epidermidis (C)”.

“PF-276 (LDLALSTNSLNLEGFSF; Peptide with targeting and/or antimicrobial activity)”: the “Target(s)” value with bacteria is reported as “S. epidermidis”. In the assay on microorganisms (M. luteus), the “Organism, effect” value was “M. luteus (M)”.

Regarding “PF-292 (SFVSTTVRLIFEESKRYKF; Peptide with targeting and/or antimicrobial activity)”, in the assay on bacteria, the “Target(s)” value is listed as “S. epidermidis; also recorded: B. subtilis; also recorded: B. fragilis”. Also, the “Organism, effect” value in the assay on microorganisms (B. subtilis) is given as “B. subtilis (C)”; in the assay on microorganisms (S. epidermidis), “S. epidermidis (C)”.

Turning to “PF-294 (DFLVNFLWFKGELNWGKKRYK; Peptide with targeting and/or antimicrobial activity)”, the “Target(s)” value in the assay on bacteria is listed as “S. epidermidis; also recorded: C. difficile”. In addition, the “Organism, effect” value in the assay on microorganisms (S. epidermidis) was “S. epidermidis (C)”.

As for “PF-297 (ISKGIDDIVYVINKILSIGNIFKIIKRK; Peptide with targeting and/or antimicrobial activity)”, in the assay with bacteria, the “Target(s)” value is reported as “S. epidermidis; also recorded: B. subtilis; also recorded: B. fragilis”. Moreover, the “Organism, effect” value is on record as “B. subtilis (C)” in the assay on microorganisms (B. subtilis) and “S. epidermidis (C)” with microorganisms (S. epidermidis).

As for “PF-301 (GIVLIGLKLIPLLANVLN; Peptide with targeting and/or antimicrobial activity)”, in the assay on bacteria, the “Target(s)” value is reported as “C. difficile”. Also, the “Organism, effect” value with microorganisms (B. subtilis) is “B. subtilis (C)”; in the assay on microorganisms (S. epidermidis), “S. epidermidis (C)”.

Turning to “PF-313 (YITSHKNARAIIKKFERDEILEEVITHYLNRK; Peptide with targeting and/or antimicrobial activity)”, the “Target(s)” value in the assay with bacteria is “S. epidermidis; also recorded: C. difficile”. For the same substance, in the assay with microorganisms (S. epidermidis), the “Organism, effect” value was “S. epidermidis (C)”.
